In PMC9918898, “Bioactive Clerodane Diterpenoids from the Leaves of Casearia coriacea Vent” (Molecules, 2023):
In brackets after ≈: the same amount, converted by molar mass. Several values for one entry are separate records, joined by “and”; a condition that tells them apart may be missing. Equal values may be shown once. Read-outs that look alike come from different tables or passages of the source. Values belong to the compound of their own block, whether it stands above or below them.

Assays:
[1] = test system: Leishmania mexicana mexicana; experiment: Antileishmanial assay (AlamarBlue); format: cell-based
Method: (§1) A continuous in vitro culture of asexual erythrocyte stages of P. falciparum, chloroquine-sensitive strain 3D7 (ATCC), was maintained following the procedure of Trager and Jensen. Antiplasmodial activity tests were conducted as previously described by the determination of lactate deshydrogenase activity. IC50 was calculated from graphs (GraphPad Prism). T. brucei strain 427 (Molteno Institute in Cambridge, UK) and L. mexicana mexicana (MHOM/BZ/84/BEL46 from Pr. P.A.M Michels of De Duve Institue, UCLouvain) were maintained following the procedure previously described by the team of Pr. Quetin-Leclercq. Antileshmanial and antitrypanosomal assays were conducted as previously described, using the AlamarBlue assay.

Hemolysis = format: cell-based
P. falciparum 3D7 = experiment: Antiplasmodial activity, lactate dehydrogenase assay; format: cell-based; conditions: Plasmodium falciparum
Method: as §1

[2] = test system: Trypanosoma brucei brucei; experiment: Antitrypanosomal assay (AlamarBlue); format: cell-based
Method: as §1

zebrafish embryos = experiment: Zebrafish embryos acute toxicity test; format: in vivo, Danio rerio
Method: (§2) Adult zebrafish (Danio rerio) were maintained, fulfilling the criteria of the Ethical Committee for the Use of Laboratory Animals at the University of Liège. They were maintained at 28 °C over a period of 14 h day/10 h night, and fertilized eggs were collected, washed with sterile water, and placed in Petri dishes. The embryos were collected, and their chorions were not removed at 24 hpf. Compound 1 was dissolved in DMSO (the maximum final concentration of DMSO was 0.4%). Twenty embryos were used per condition in a 6-well plate. Each well contained 5 mL of the treatment dose (compound 1 or DMSO 0.4%), which was replaced daily for three days. The embryos were observed under a binocular microscope daily until 72 hpf (hours post fertilization).

[3] = Zebrafish embryos acute toxicity test; format: in vivo, Danio rerio; conditions: zebrafish (Danio rerio), in vivo, other: immersion of embryos in treatment solution in wells; zebrafish embryos
Method: as §2

MDA-MB-231 cells = experiment: In vitro cytotoxic activity (Prestoblue); format: cell-based, human; conditions: towards Plasmodium
Method: (§3) Assays were performed on different human cancer cell lines (MDA-MB-231, PANC-1, and A549 cells obtained from ATCC) to evaluate the cytotoxicity potential of the compounds 1–3, and the crude extract. Cells were grown in high-glucose Dulbecco’s modified Eagle Medium (DMEM, Gibco) supplemented with glutamine (2 mM), penicillin (50 IU/mL), streptomycin (0.5 mg/mL), sodium pyruvate (0.5 mM), and 10% FBS (Foetal Bovine Serum) at 37 °C with 5% CO2 in the air. Compounds were tested in 96-well microplates using the Prestoblue® colorimetric assay for cell viability based on the reduction of resazurin in resorufin as previously described. Briefly, 2500 cells were seeded per well in 100 µL of medium supplemented with adequate concentrations of the tested drugs. After 72 h of drug exposure, 75 µL of diluted solution of Prestoblue reagent were added to each well, and the plate was incubated in the dark for 2 h at 37 °C. Any changes in cell viability were detected using fluorescence spectroscopy. The fluorescence of resorufin was measured using a SpectraMax i3 plate reader (Molecular Devices™) with excitation and emission wavelengths set at 560 nm and 590 nm, respectively. The cell viability was expressed as a percentage relative to control-vehicle-treated cells (DMSO 0.1%). IC50 values were calculated from graphs based on a regression line in which the resorufin fluorescence values were plotted against the logarithm of drug concentration.

A549 cells = experiment: In vitro cytotoxic activity (Prestoblue); format: cell-based, human; conditions: towards Plasmodium
Method: as §3

PANC-1 cells = experiment: In vitro cytotoxic activity (Prestoblue); format: cell-based, human; conditions: towards Plasmodium
Method: as §3

zebrafish = test system: zebrafish; set-up: method as in PMID 21738604; conditions: cited from earlier work
[4] = n = 3, mean ± SD, read-out: Leishmania IC50 (converted)
[5] = 3D7, n = 3, mean ± SD, read-out: P. falciparum 3D7 IC50 (converted)
[6] = n = 3, mean ± SD, read-out: Trypanosoma IC50 (converted)

SMILES: C=CC(=C)CC[C@]1(C)[C@H]2C[C@H](OC(=O)C(C)C)C=C3[C@H](OC(C)=O)O[C@H](OC(C)=O)[C@@]32[C@H](O)C[C@@H]1C [Compound 2, corymbulosine I]
- IC50 [1, 4]: 10.3 µg/mL and 20.4 µM
- hemolysis (Hemolysis; red blood cells, read-out: Hemolysis): < 1%
- IC50 (P. falciparum 3D7; [5]): 0.4 µg/mL and 790 nM
- IC50 [2, 6]: 3 µg/mL and 5.95 µM

SMILES: N=C(N)c1ccc(OCCCCCOc2ccc(C(=N)N)cc2)cc1 [Pentamidine, reference compound]
- IC50 ([1]; read-out: Leishmania IC50): 0.02 µg/mL and 60 nM

SMILES: C=CC(=C)CC[C@]1(C)[C@H]2C[C@H](OC(=O)CCC)C=C3[C@H](OC(C)=O)O[C@H](OC(C)=O)[C@@]32[C@H](O)C[C@@H]1C [Compound 1, caseamembrin T]
- embryos alive (zebrafish embryos; 5 µg/mL, 48 hpf): 20%
- state of embryos (zebrafish embryos; 5 µg/mL, 72 hpf): lifeless
- lethality (zebrafish embryos; concentrations higher than 5 µg/mL): lethal for all embryos
- mortality and morphological change (zebrafish embryos; up to a concentration of 1 µg/mL): neither mortality nor morphological change were observed
- LC50 at 3 days [3]: 1 to 5 µg/mL (≈ 1.98 to 9.91 µM)
- IC50 [1, 4]: 26.1 µg/mL and 51.7 µM
- hemolysis (Hemolysis): < 1%
- IC50 (P. falciparum 3D7; 3D7, read-out: P. falciparum 3D7 IC50): 0.25 µg/mL and 490 nM
- selectivity index against MDA-MB-231 (MDA-MB-231 cells): 5.4
- selectivity index against A549 (A549 cells): 6.5
- selectivity index against PANC-1 (PANC-1 cells): 3
- IC50 ([2]; read-out: Trypanosoma IC50): 3.08 µg/mL and 6.11 µM

- IC50 [2, 6]: 0.05 µg/mL and 40 nM
SMILES: Cc1ccc(C(=O)Nc2ccc(S(=O)(=O)O)c3cc(S(=O)(=O)O)cc(S(=O)(=O)O)c23)cc1NC(=O)c1cccc(NC(=O)Nc2cccc(C(=O)Nc3cc(C(=O)Nc4ccc(S(=O)(=O)O)c5cc(S(=O)(=O)O)cc(S(=O)(=O)O)c45)ccc3C)c2)c1 [Suramine, reference compound]

- IC50 (P. falciparum 3D7; [5]): 0.004 ± 0.001 µg/mL (≈ 0.0142 µM)
SMILES: C[C@@H]1CC[C@H]2[C@@H](C)C(=O)O[C@@H]3O[C@@]4(C)CC[C@@H]1[C@]32OO4 [Artemisinin, reference compound]

SMILES: CN1CCC[C@H]1c1cccnc1 [nicotine]
- lethal dose 50 (LC50) (zebrafish): 35.1 ± 0.5 µg/mL

SMILES: CC(=O)Nc1ccc(O)cc1 [paracetamol]
- lethal dose 50 (LC50) (zebrafish): 535.8 ± 17.1 µg/mL

SMILES: C=CC(=C)CC[C@]1(C)[C@H]2C[C@H](OC(=O)C(C)CC)C=C3[C@H](OC(C)=O)O[C@H](OC(C)=O)[C@@]32[C@H](O)C[C@@H]1C (relative stereo) [Compound 3, rel-(2S,5R,6R,8S,9S,10R,18S,19R)-18,19-epoxy-18,19-diacetoxy-6-hydroxy-2-(2-methylbutanoyloxy)cleroda-3,13(16),14-triene]
- IC50 [1, 4]: 26 µg/mL and 50.3 µM
- hemolysis (Hemolysis): < 1%
- IC50 (P. falciparum 3D7; [5]): 0.51 µg/mL and 980 nM
- IC50 [2, 6]: 3.03 µg/mL and 5.85 µM

SMILES: C[C@H]1O[C@@H](O[C@H]2[C@@H](O)C[C@H](O[C@H]3[C@@H](O)C[C@H](O[C@H]4CC[C@@]5(C)[C@H](CC[C@@H]6[C@@H]5C[C@@H](O)[C@]5(C)[C@@H](C7=CC(=O)OC7)CC[C@]65O)C4)O[C@@H]3C)O[C@@H]2C)C[C@H](O)[C@@H]1O [digoxin]
- lethal dose 50 (LC50) (zebrafish): 0.5 ± 0.006 µg/mL
